Experimental data reported in patent US11149040B2, “Fused triazole agonists of the APJ receptor” (AMGEN INC., priority 2017, dated 2021).

Target: human APJ receptor (Homo sapiens (Human), UniProt P35414)
Assay: [35S]GTPγS binding assay on membranes from CHO cells stably expressing human APJ receptor
Assay type: biochemical
Details: read-out: Activity hAPJ SPA EC50 IP
Protocol: [^35S]GTPγS Binding The human APJ receptor was cloned by polymerase chain reaction and the gene encoding the receptor was subcloned in pFLAG-CMV™-3 expression vector (Sigma, Saint Louis, Mo. USA) in-house at Amgen. A GTPγS binding assay was performed on membranes prepared from CHO cells stably expressing human APJ receptor. The optimum experimental conditions for the concentrations of GDP, MgCl2, and NaCl in the assay buffer were initially determined. […] Incubation was at RT for 90 min and the microplate was read using a ViewLux™ ultra HTS Microplate Imager (PerkinElmer, Inc.). All the results presented are means of several independent experiments and analyzed by non-linear regression methods using the commercially available program Prism (GraphPad, San Diego, Calif.) providing the EC50 values detailed in Table 13.

human APJ receptor, sequence (P35414 whole entry): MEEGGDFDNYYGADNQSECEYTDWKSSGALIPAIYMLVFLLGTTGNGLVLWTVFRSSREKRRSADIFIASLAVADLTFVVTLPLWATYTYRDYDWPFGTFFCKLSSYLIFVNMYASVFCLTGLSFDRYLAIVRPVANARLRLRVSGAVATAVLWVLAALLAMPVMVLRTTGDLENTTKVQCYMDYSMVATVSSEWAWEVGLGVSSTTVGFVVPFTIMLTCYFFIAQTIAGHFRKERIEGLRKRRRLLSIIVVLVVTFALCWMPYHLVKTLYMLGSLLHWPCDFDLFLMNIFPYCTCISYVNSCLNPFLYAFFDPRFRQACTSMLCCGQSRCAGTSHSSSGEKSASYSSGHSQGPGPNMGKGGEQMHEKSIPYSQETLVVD

Row | SMILES | EC50
1 | CO[C@H](c1ncc(C)cn1)[C@H](C)S(=O)(=O)Nc1nnc2n1[C@H](COC(C)C)COc1ncccc1-2 (single isomer, unassigned) [Example 64.0, (1R,2S)-N-((R)-5-(isopropoxymethyl)-5,6-dihydropyrido[3,2-f][1,2,4]triazolo[4,3-d][1,4]oxazepin-3-yl)-1-methoxy-1-(5-methylpyrimidin-2-yl)propane-2-sulfonamide or (1R,2S)-N-((S)-5-(isopropoxymethyl)-5,6-dihydropyrido[3,2-f][1,2,4]triazolo[4,3-d][1,4]oxazepin-3-yl)-1-methoxy-1-(5-methylpyrimidin-2-yl)propane-2-sulfonamide] | 640 nM
2 | COC[C@@H]1COc2ncccc2-c2nnc(NS(=O)(=O)[C@@H](C)[C@@H](OC(C)C)c3ncc(C)cn3)n21 (single isomer, unassigned) [Example 40.0] | 86 nM
3 | COC[C@@H]1COc2ncccc2-c2nnc(NS(=O)(=O)[C@@H](C)[C@@H](OC(C)C)c3ncc(C)cn3)n21 (mixture of isomers) [Example 32.0, (1S,2S)-N-((5R)-5-(methoxymethyl)-5,6-dihydropyrido[3,2-f][1,2,4]triazolo[4,3-d][1,4]oxazepin-3-yl)-1-(5-methyl-2-pyrimidinyl)-1-(2-propanyloxy)-2-propanesulfonamide and (1S,2S)-N-((5S)-5-(methoxymethyl)-5,6-dihydropyrido[3,2-f][1,2,4]triazolo[4,3-d][1,4]oxazepin-3-yl)-1-(5-methyl-2-pyrimidinyl)-1-(2-propanyloxy)-2-propanesulfonamide] | 140 nM
4 | Cc1cnc([C@H](OC(C)C)[C@H](C)S(=O)(=O)Nc2nnc3n2C(CO)COc2ccc(C(F)(F)F)cc2-3)nc1 (single isomer, unassigned) [Example 157.0, (1S,2S)-N-((R)-5-(hydroxymethyl)-10-(trifluoromethyl)-5,6-dihydrobenzo[f][1,2,4]triazolo[4,3-d][1,4]oxazepin-3-yl)-1-isopropoxy-1-(5-methylpyrimidin-2-yl)propane-2-sulfonamide or (1S,2S)-N-((S)-5-(hydroxymethyl)-10-(trifluoromethyl)-5,6-dihydrobenzo[f][1,2,4]triazolo[4,3-d][1,4]oxazepin-3-yl)-1-isopropoxy-1-(5-methylpyrimidin-2-yl)propane-2-sulfonamide] | > 12500 nM
5 | COC[C@@H]1COc2ccc(F)cc2-c2nnc(NS(=O)(=O)[C@@H](C)[C@@H](OC(C)C)c3ncc(C)cn3)n21 (mixture of isomers) [Example 23.0, (1S,2S)-N-((5R)-10-fluoro-5-(methoxymethyl)-5,6-dihydro[1,2,4]triazolo[4,3-d][1,4]benzoxazepin-3-yl)-1-(5-methyl-2-pyrimidinyl)-1-(2-propanyloxy)-2-propanesulfonamide and (1S,2S)-N-((5S)-10-fluoro-5-(methoxymethyl)-5,6-dihydro[1,2,4]triazolo[4,3-d][1,4]benzoxazepin-3-yl)-1-(5-methyl-2-pyrimidinyl)-1-(2-propanyloxy)-2-propanesulfonamide] | 37 nM
6 | Cc1cnc([C@H](OC(C)C)[C@H](C)S(=O)(=O)Nc2nnc3n2-c2ccccc2/C=C\CC3)nc1 (single isomer, unassigned) [Example 47.0, (P) (1S,2S)-N-((Z)-4,5-dihydrobenzo[g][1,2,4]triazolo[4,3-a]azocin-1-yl)-1-isopropoxy-1-(5-methylpyrimidin-2-yl)propane-2-sulfonamide or (M) (1S,2S)-N-((Z)-4,5-dihydrobenzo[g][1,2,4]triazolo[4,3-a]azocin-1-yl)-1-isopropoxy-1-(5-methylpyrimidin-2-yl)propane-2-sulfonamide] | > 12500 nM
7 | COC[C@@H]1COc2ccc(OC)nc2-c2nnc(NS(=O)(=O)[C@@H](C)[C@H](C)c3ncc(OC)cn3)n21 (stereo in doubt) [Example 3.0, (2S,3R)-N-((5R)-10-methoxy-5-(methoxymethyl)-5,6-dihydropyrido[2,3-f][1,2,4]triazolo[4,3-d][1,4]oxazepin-3-yl)-3-(5-methoxy-2-pyrimidinyl)-2-butanesulfonamide and (2S,3R)-N-((5S)-10-methoxy-5-(methoxymethyl)-5,6-dihydropyrido[2,3-f][1,2,4]traizolo[4,3-d][1,4]oxazepin-3-yl)-3-(5-methoxy-2-pyrimidinyl)-2-butanesulfonamide] | 490 nM
8 | COC[C@@H]1COc2cc(F)c(F)cc2-c2nnc(NS(=O)(=O)[C@@H](C)[C@@H](OC(C)C)c3ncc(C)cn3)n21 (single isomer, unassigned) [Example 21.0, (1S,2S)-N-((5R)-9,10-difluoro-5-(methoxymethyl)-5,6-dihydro[1,2,4]triazolo[4,3-d][1,4]benzoxazepin-3-yl)-1-(5-methyl-2-pyrimidinyl)-1-(2-propanyloxy)-2-propanesulfonamide or (1S,2S)-N-((5S)-9,10-difluoro-5-(methoxymethyl)-5,6-dihydro[1,2,4]triazolo[4,3-d][1,4]benzoxazepin-3-yl)-1-(5-methyl-2-pyrimidinyl)-1-(2-propanyloxy)-2-propanesulfonamide] | 3400 nM
9 | COC[C@@H]1COc2c(OC)cccc2-c2nnc(NS(=O)(=O)[C@@H](C)[C@@H](OC(C)C)c3ncc(C)cn3)n21 (single isomer, unassigned) [Example 38.0, (1S,2S)-N-((5R)-8-methoxy-5-(methoxymethyl)-5,6-dihydro[1,2,4]traizolo[4,3-d][1,4]benzoxazepin-3-yl)-1-(5-methyl-2-pyrimidinyl)-1-(2-propanyloxy)-2-propanesulfonamide or (1S,2S)-N-((5S)-8-methoxy-5-(methoxymethyl)-5,6-dihydro[1,2,4]triazolo[4,3-d][1,4]benzoxazepin-3-yl)-1-(5-methyl-2-pyrimidinyl)-1-(2-propanyloxy)-2-propanesulfonamide] | 64 nM
10 | Cc1cnc([C@H](OC(C)C)[C@H](C)S(=O)(=O)Nc2nnc3n2[C@H](CO)COc2ncccc2-3)nc1 (mixture of isomers) [Example 30.0, (1S,2S)-N-((5R)-5-(hydroxymethyl)-5,6-dihydropyrido[3,2-f][1,2,4]triazolo[4,3-d][1,4]oxazepin-3-yl)-1-(5-methyl-2-pyrimidinyl)-1-(2-propanyloxy)-2-propanesulfonamide and (1S,2S)-N-((5S)-5-(hydroxymethyl)-5,6-dihydropyrido[3,2-f][1,2,4]triazolo[4,3-d][1,4]oxazepin-3-yl)-1-(5-methyl-2-pyrimidinyl)-1-(2-propanyloxy)-2-propanesulfonamide] | 460 nM
11 | COC[C@@H]1COc2ncccc2-c2nnc(NS(=O)(=O)[C@@H](C)[C@H](OC(C)C)c3ncc(C)cn3)n21 (single isomer, unassigned) [Example 68.0, (1R,2S)-N-((5R)-5-(methoxymethyl)-5,6-dihydropyrido[3,2-f][1,2,4]triazolo[4,3-d][1,4]oxazepin-3-yl)-1-(5-methyl-2-pyrimidinyl)-1-(2-propanyloxy)-2-propanesulfonamide or (1R,2S)-N-((5S)-5-(methoxymethyl)-5,6-dihydropyrido[3,2-f][1,2,4]triazolo[4,3-d][1,4]oxazepin-3-yl)-1-(5-methyl-2-pyrimidinyl)-1-(2-propanyloxy)-2-propanesulfonamide] | 3900 nM
12 | Cc1cnc([C@H](OC(C)C)[C@H](C)S(=O)(=O)Nc2nnc3n2-c2c(F)cccc2/C=C\CC3)nc1 (single isomer, unassigned) [Example 48.0, (P)(1S,2S)-N-((Z)-11-Fluoro-4,5-dihydrobenzo[g][1,2,4]triazolo[4,3-a]azocin-1-yl)-1-isopropoxy-1-(5-methylpyrimidin-2-yl)propane-2-sulfonamide or (M)(1S,2S)-N-((Z)-11-fluoro-4,5-dihydrobenzo[g][1,2,4]triazolo[4,3-a]azocin-1-yl)-1-isopropoxy-1-(5-methylpyrimidin-2-yl)propane-2-sulfonamide] | > 12500 nM
13 | COC[C@@H]1COc2cnccc2-c2nnc(NS(=O)(=O)[C@@H](C)[C@@H](OC(C)C)c3ncc(C)cn3)n21 (single isomer, unassigned) [Example 66.0, (1S,2S)-N-((5R)-5-(methoxymethyl)-5,6-dihydropyrido[4,3-f][1,2,4]triazolo[4,3-d][1,4]oxazepin-3-yl)-1-(5-methyl-2-pyrimidinyl)-1-(2-propanyloxy)-2-propanesulfonamide or (1S,2S)-N-((5S)-5-(methoxymethyl)-5,6-dihydropyrido[4,3-f][1,2,4]triazolo[4,3-d][1,4]oxazepin-3-yl)-1-(5-methyl-2-pyrimidinyl)-1-(2-propanyloxy)-2-propanesulfonamide] | 760 nM
14 | C=C1COc2ccccc2-c2nnc(NS(=O)(=O)[C@@H](C)[C@@H](OC(C)C)c3ncc(C)cn3)n21 [Example 17.0, (1S,2S)-N-(5-Methylidene-5,6-dihydro[1,2,4]triazolo[4,3-d][1,4]benzoxazepin-3-yl)-1-(5-methyl-2-pyrimidinyl)-1-(2-propanyloxy)-2-propanesulfonamide] | 1000 nM
15 | COC[C@@H]1COc2ccc(F)cc2-c2nnc(NS(=O)(=O)[C@@H](C)[C@@H](OC(C)C)c3ncc(C)cn3)n21 (single isomer, unassigned) [Example 26.0, (1S,2S)-N-((5R)-10-fluoro-5-(methoxymethyl)-5,6-dihydro[1,2,4]triazolo[4,3-d][1,4]benzoxazepin-3-yl)-1-(5-methyl-2-pyrimidinyl)-1-(2-propanyloxy)-2-propanesulfonamide or (1S,2S)-N-((5S)-10-fluoro-5-(methoxymethyl)-5,6-dihydro[1,2,4]triazolo[4,3-d][1,4]benzoxazepin-3-yl)-1-(5-methyl-2-pyrimidinyl)-1-(2-propanyloxy)-2-propanesulfonamide] | 460 nM
